Results reported in ChEMBL document CHEMBL2331402, “Salicylaldoxime derivatives as new leads for the development of carbonic anhydrase inhibitors” (Bioorg Med Chem, 2013).

Assays:
[1] = biological target: Carbonic anhydrase 2 (Homo sapiens, UniProt P00918); experiment: Inhibition of human recombinant carbonic anhydrase 2 preincubated for 15 mins by CO2 hydration stopped-flow assay
[2] = biological target: Carbonic anhydrase 1 (Homo sapiens, UniProt P00915); experiment: Inhibition of human recombinant carbonic anhydrase 1 preincubated for 15 mins by CO2 hydration stopped-flow assay
Sequence of Carbonic anhydrase 1 (P00915 whole entry): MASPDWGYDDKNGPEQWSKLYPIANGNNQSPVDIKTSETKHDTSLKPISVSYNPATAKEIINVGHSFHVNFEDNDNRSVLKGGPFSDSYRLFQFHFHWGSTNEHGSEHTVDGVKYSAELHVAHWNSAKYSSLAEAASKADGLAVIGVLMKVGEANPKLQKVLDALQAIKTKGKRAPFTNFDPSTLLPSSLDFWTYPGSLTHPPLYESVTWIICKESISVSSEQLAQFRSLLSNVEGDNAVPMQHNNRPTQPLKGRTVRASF

[3] = biological target: Carbonic anhydrase 12 (Homo sapiens, UniProt O43570); experiment: Inhibition of human recombinant carbonic anhydrase 12 preincubated for 15 mins by CO2 hydration stopped-flow assay
Sequence of Carbonic anhydrase 12 (O43570 whole entry): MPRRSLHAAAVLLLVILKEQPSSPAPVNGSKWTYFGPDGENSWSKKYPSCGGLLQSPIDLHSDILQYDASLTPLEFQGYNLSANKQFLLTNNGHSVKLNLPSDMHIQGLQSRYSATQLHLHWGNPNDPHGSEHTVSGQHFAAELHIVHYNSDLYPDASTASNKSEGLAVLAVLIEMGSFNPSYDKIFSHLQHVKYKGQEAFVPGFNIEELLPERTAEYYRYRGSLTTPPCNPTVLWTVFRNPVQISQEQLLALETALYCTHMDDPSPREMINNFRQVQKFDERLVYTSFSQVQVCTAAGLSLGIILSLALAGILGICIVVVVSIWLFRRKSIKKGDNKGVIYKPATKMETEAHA

[4] = biological target: Carbonic anhydrase 9 (Homo sapiens, UniProt Q16790); experiment: Inhibition of human recombinant carbonic anhydrase 9 preincubated for 15 mins by CO2 hydration stopped-flow assay

Structure (SMILES)	Ki [1] [µM]	Ki [2] [µM]	Ki [3] [µM]	Ki [4] [µM]
O/N=C/c1c(O)ccc(-c2ccc(O)cc2)c1Cl	2.3	3.98	4.31	
O/N=C/c1c(O)ccc(-c2ccc(O)c(F)c2)c1Cl	3.74	7.27	5.53	7.04
Oc1cc(F)cc(F)c1	340			0.944
N#Cc1c(-c2ccc(O)cc2)ccc(/C=N/O)c1O	5.87	7.65	3.14	7.72
Cc1c(-c2ccc(O)cc2)ccc(/C=N/O)c1O	6.35	7.88	7.45	6.43
COc1ccc(-c2ccc(O)c(/C=N/O)c2)cc1F	3.66	6.93	5.94	10.2
O/N=C/c1cc(-c2ccc(O)c(F)c2)ccc1O	4.13	9.13	4.24	6.99
C/C(=N\O)c1ccc(-c2ccc(O)cc2)c(Cl)c1O	3.32	6.9	4.53	10.2
C/C(=N\O)c1ccc(-c2ccc(O)c(F)c2)c(Cl)c1O	4.96	7.57	4.77	7.08
